The NIST ThermoML archive (doi:10.1016/j.jct.2018.08.004)
± gives the expanded uncertainty stated by the source.

Tests used:
[1] = xn = mol fraction of the nth substance listed; conditions: x2 = 0; for surface tension liquid-gas: Maximal bubble pressure; for mass density: 100 kPa, Liquid, Vibrating tube method
[2] = Maximal bubble pressure

CC(C)O [propan-2-ol] + CCCC[n+]1ccccc1.N#C[N-]C#N
[1]
Conditions	mass density [kg/m3]	surface tension liquid-gas [mN/m]
288.15 K	789.41 ± 2	22.2 ± 0.8
293.15 K	785.29 ± 2	21.7 ± 0.7
298.15 K	781.08 ± 2	21.2 ± 0.7
303.15 K	776.81 ± 1.9	20.8 ± 0.7
308.15 K	772.46 ± 1.9	20.3 ± 0.7
313.15 K	768.02 ± 1.9	19.9 ± 0.7
318.15 K	763.48 ± 1.9	19.4 ± 0.7

CCCO [propan-1-ol]
[2]
Conditions	surface tension liquid-gas [mN/m]
288.15 K	24.5 ± 0.8
293.15 K	23.9 ± 0.8
298.15 K	23.4 ± 0.8
303.15 K	23 ± 0.8
308.15 K	22.5 ± 0.8
313.15 K	22.1 ± 0.7
318.15 K	21.6 ± 0.7

CCO [ethanol]
[2]
Conditions	surface tension liquid-gas [mN/m]
288.15 K	23.3 ± 0.8
293.15 K	22.7 ± 0.8
298.15 K	22.2 ± 0.8
303.15 K	21.6 ± 0.7
308.15 K	21.1 ± 0.7
313.15 K	20.7 ± 0.7
318.15 K	20 ± 0.7

CC(C)O [propan-2-ol]
[2]
Conditions	surface tension liquid-gas [mN/m]
288.15 K	22.2 ± 0.8
293.15 K	21.7 ± 0.7
298.15 K	21.2 ± 0.7
303.15 K	20.8 ± 0.7
308.15 K	20.3 ± 0.7
313.15 K	19.9 ± 0.7
318.15 K	19.4 ± 0.7

CCO [ethanol] + CCCC[n+]1ccccc1.N#C[N-]C#N
[1]
Conditions	mass density [kg/m3]	surface tension liquid-gas [mN/m]
288.15 K	793.91 ± 2	23.3 ± 0.8
293.15 K	789.66 ± 2	22.7 ± 0.8
298.15 K	785.73 ± 2	22.2 ± 0.8
303.15 K	781.05 ± 2	21.6 ± 0.7
308.15 K	776.7 ± 1.9	21.1 ± 0.7
313.15 K	772.31 ± 1.9	20.7 ± 0.7
318.15 K	767.88 ± 1.9	20 ± 0.7

CCCO [propan-1-ol] + CCCC[n+]1ccccc1.N#C[N-]C#N
[1]
Conditions	mass density [kg/m3]	surface tension liquid-gas [mN/m]
288.15 K	807.55 ± 2	24.5 ± 0.8
293.15 K	803.59 ± 2	23.9 ± 0.8
298.15 K	799.58 ± 2	23.4 ± 0.8
303.15 K	795.55 ± 2	23 ± 0.8
308.15 K	791.47 ± 2	22.5 ± 0.8
313.15 K	787.36 ± 2	22.1 ± 0.7
318.15 K	783.2 ± 2	21.6 ± 0.7
